Laboratory results from PubChem BioAssay (NCI).
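Following 48 hours of exposure in 96-well plates, responses at five concentrations were used to interpolate endpoints linearly. TGI marks complete inhibition of growth.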

What was measured:
Test in all cases: growth of human tumour cells (NCI), 48 h
OVCAR-3 ovarian = system: OVCAR-3 ovarian
SF-539 CNS = system: SF-539 CNS
RXF 393 renal = system: RXF 393 renal
RXF-631 renal = system: RXF-631 renal
HOP-62 NSCLC = system: HOP-62 NSCLC
U251 CNS = system: U251 CNS
NCI-H460 lung = system: NCI-H460 lung
SW-620 colon = system: SW-620 colon
UO-31 renal = system: UO-31 renal
SK-MEL-2 melanoma = system: SK-MEL-2 melanoma
M14 melanoma = system: M14 melanoma
TK-10 renal = system: TK-10 renal
SF-295 CNS = system: SF-295 CNS
KM12 colon = system: KM12 colon
RPMI-8226 leukemia = system: RPMI-8226 leukemia
A549 NSCLC = system: A549 NSCLC
HCT-116 colon = system: HCT-116 colon
OVCAR-5 ovarian = system: OVCAR-5 ovarian
XF 498 CNS = system: XF 498 CNS
LXFL 529 NSCLC = system: LXFL 529 NSCLC
COLO 205 colon = system: COLO 205 colon
UACC-257 melanoma = system: UACC-257 melanoma
DLD-1 colon = system: DLD-1 colon
HOP-92 NSCLC = system: HOP-92 NSCLC
SNB-78 CNS = system: SNB-78 CNS
MALME-3M melanoma = system: MALME-3M melanoma
NCI-H226 lung = system: NCI-H226 lung
KM20L2 colon = system: KM20L2 colon
EKVX NSCLC = system: EKVX NSCLC
IGROV1 ovarian = system: IGROV1 ovarian
HL-60(TB) leukemia = system: HL-60(TB) leukemia
SF-268 CNS = system: SF-268 CNS
HT29 colon = system: HT29 colon
NCI-H522 lung = system: NCI-H522 lung
LOX IMVI melanoma = system: LOX IMVI melanoma
CCRF-CEM leukemia = system: CCRF-CEM leukemia
M19-MEL melanoma = system: M19-MEL melanoma
SK-MEL-28 melanoma = system: SK-MEL-28 melanoma
SNB-75 CNS = system: SNB-75 CNS
NCI-H23 lung = system: NCI-H23 lung
MOLT-4 leukemia = system: MOLT-4 leukemia
786-0 renal = system: 786-0 renal
DMS 114 small cell lung = system: DMS 114 small cell lung
UACC-62 melanoma = system: UACC-62 melanoma
SK-MEL-5 melanoma = system: SK-MEL-5 melanoma
SK-OV-3 ovarian = system: SK-OV-3 ovarian
A498 renal = system: A498 renal
K-562 leukemia = system: K-562 leukemia
HCC-2998 colon = system: HCC-2998 colon
OVCAR-8 ovarian = system: OVCAR-8 ovarian
DMS 273 small cell lung = system: DMS 273 small cell lung
SN12C renal = system: SN12C renal
HOP-18 NSCLC = system: HOP-18 NSCLC
SNB-19 CNS = system: SNB-19 CNS
HCT-15 colon = system: HCT-15 colon
ACHN renal = system: ACHN renal
OVCAR-4 ovarian = system: OVCAR-4 ovarian
CAKI-1 renal = system: CAKI-1 renal
SR leukemia = system: SR leukemia

Measured: TGI

COC(=O)N/N=C(\C)CC(=O)Nc1ccc(Cl)cc1
not listed: DMS 273 small cell lung | SN12C renal | HOP-18 NSCLC | SNB-19 CNS | HCT-15 colon | ACHN renal | OVCAR-4 ovarian | CAKI-1 renal | SR leukemia
> 100 µM: all other assays above

NC(=O)c1ccc(Cl)c([N+](=O)[O-])c1
not listed: RXF-631 renal | SK-MEL-2 melanoma | RPMI-8226 leukemia | SR leukemia
> 100 µM: all other assays above

O=c1c2cc3ccccc3n2c(=O)c2cc3ccccc3n12
not listed: RXF-631 renal | HOP-62 NSCLC | COLO 205 colon | IGROV1 ovarian | SK-OV-3 ovarian
> 100 µM: all other assays above
